Source: ChEMBL document CHEMBL4428031, “Verbascoside Inhibits Promastigote Growth and Arginase Activity of Leishmania amazonensis” (J Nat Prod, 2016)
Calls of active or inactive are those of the source. No cut-off for these calls is given here.

Experiments:
Leishmania amazonensis [1] = assay: Antileishmanial activity against Leishmania amazonensis MHOM/BR/1973/M2269 promastigotes assessed as reduction in cell viability incubated up to 72 hrs by trypan blue dye based Neubauer chamber method; assay type: functional, organism-based; conditions: MHOM/BR/1973/M2269, 72 h
Arginase = Arginase (Leishmania amazonensis, UniProt O96394); assay: Competitive inhibition of Leishmania amazonensis arginase assessed as inhibition constant for enzyme-inhibitor complex using L-arginine as substrate incubated for 15 mins by Dixon plot analysis
Leishmania amazonensis [2] = assay: Antileishmanial activity against Leishmania amazonensis MHOM/BR/1973/M2269 promastigotes assessed as reduction in cell viability at 100 uM after 72 hrs by trypan blue dye based Neubauer chamber method; assay type: functional, organism-based
Leishmania donovani = assay: Antileishmanial activity against Leishmania donovani axenic amastigotes after 72 hrs by alamar blue assay; assay type: functional, organism-based

C[C@@H]1O[C@@H](O[C@@H]2[C@@H](O)[C@H](OCCc3ccc(O)c(O)c3)O[C@H](CO)[C@H]2OC(=O)/C=C/c2ccc(O)c(O)c2)[C@H](O)[C@H](O)[C@H]1O [ACETOSIDE]
EC50 (Leishmania amazonensis [1]): 19 µM | Ki (Arginase): 0.7 µM | Activity (Leishmania amazonensis [2]): Active | EC50 (Leishmania donovani): 14 µM
